Experimental data published in patent US20260028343A1, “Substituted Imidazopyrazine Compounds as Ligand Directed Degraders of IRAK3” (Celgene Corporation, priority 2022, published 2026).

Biological target: T1, IRAK3-ePL (Homo sapiens, UniProt Q9Y616)
T1 construct: expressed in transfected cells; host or cells: 293T CRBN OE / GSPT1 G575N KI cells, lentiviral transduction, puromycin selection
Assay: IRAK3-ePL Overexpressing Degradation Assay
Assay type: cell-based
Conditions: IRAK3-ePL Lenti-X 293T CRBN/GSPT1 G575N cells, overnight incubation; for Dmax: HEK-293T, top dose 10 μM, maximum percentage loss of target protein; for DC50: read-out: IRAK3 ePL degradation EC50
Method: Stable cell lines were generated by the following protocol. 3×10^5 Lenti-X 293T cells (Clonetech) were plated in 0.8 mL of media in a 12-well plate and incubated overnight at 37° C./5% CO2. Packaging plasmid (0.4 μg, pMD), envelope plasmid (0.4 μg, pSP), and lentiviral transfer IRAK3-ePL plasmid (0.8 μg, IRAK3 sequence NM_007199.3) were mixed in 0.1 mL of Opti-MEM and incubated for 5 min. Simultaneously, 2.4 μL of Lipofectamine 2000 (Invitrogen) was added to 0.1 mL of Opti-MEM (Gibco) and incubated for 5 min. The plasmid DNA and lipofectamine were combined and the mixture was allowed to incubate for 20 min.DNA:Lipofectamine Opti-MEM mixtures were then added to previously plated cells dropwise and the cells were incubated for ˜16 h at 37° C./5% CO2. Following incubation, the media was removed and 1.2 mL of fresh media was added per well. Lenti-X 293T cells were incubated for ˜30 h at 37° C./5% CO2. 0.5×10^6 293T^CRBN OE/GSPT1 G575N KI cells were plated in 0.5 mL of media/well of a 12-well plate and incubated for ˜16 h at 37° C./5% CO2. Following incubation, media was removed from the Lenti-X 293T wells and passed through a […]. Part of the viral supernatant was used to transduce cells and the rest was stored at −80° C. Viruses were then added individually (0.5 mL virus) to each well of the 293T^CRBN OE/GSPT1 G575N KI cells, followed by addition of polybrene (10 mg/mL Millipore) to each well at a final concentration of 5.0 μg/mL. Cells were incubated for ˜24 h at 37° C./5% CO2. After aspirating media off plates, cells were washed with DPBS, trypsinized and plated in a 10 cm dish in 15 mL of media and 1 μg/mL puromycin. Following incubation of cells for ˜72 h at 37° C./5% CO2, media was aspirated off plates, and cells were washed with DPBS and trypsinized. The cells were plated in a 15 cm dish in 40 mL of media with 1.0 μg/mL Puromycin (Gibco) and incubated for ˜72 h at 37° C./5% CO2. Following incubation, media was removed and cells were washed with DPBS and trypsinized. The majority of cells were resuspended in Invitrogen freezing media and stored away (˜6-8×10^6 cells/vial).
IRAK3-ePL cellular dose response curve degradation assays were performed by the following protocol. Compounds to be tested were dispensed into a white 384-well tissue-culture treated plate using an acoustic liquid handler. Dilutions were prepared based on a 25 μL assay volume in duplicate 10 point 3-fold serial dilutions starting with a 10 μM dose. Negative control wells were included, which only contain 0.2% DMSO to calculate 100% signal. Positive control wells containing 30 μM Ataluren (luciferase inhibitor) were included to calculate the background signal level. All wells were backfilled to a final DMSO concentration of 0.2% to ensure DMSO uniformity across wells. IRAK3-ePL expressing cells (IRAK3-ePL Lenti-X 293T^CRBN/GSPT1 G575N) were washed, trypsinized, counted, and resuspended in fresh DMEM (Gibco) to give a cell concentration of 200,000 cells/mL. 25 μL of cells (5,000 cells/well) were dispensed into the wells of the 384-well plate prespotted with compounds in the previous step and incubated overnight at 37° C./5% CO2. Following incubation, the 384-well plate was taken out of the incubator and left at room temperature for 30 min. InCELL hunter reagent was prepared according to manufacturer's instructions (EA reagent, lysis buffer, and substrate reagent in a 1:1:4 ratio, Cat #96-0002, DiscoverX), which was added to the 384-well plate 25 μL per well. Following the incubation of the plate for 1 h at room temperature, the luminescence signal was read using a ViewLux plate reader. Data was processed and analyzed in ActivityBase software. In short, the average luminescence values of the positive control wells were subtracted from the rest of the wells for background correction, and all luminescence values were normalized to the DMSO control wells. The average value of the DMSO control wells was set to equal 100% of the relative IRAK3-ePL protein levels. […]

Structure (SMILES)	Dmax [%]	DC50 [nM]
Cc1cccc(-c2cnc(Nc3ccc(N4CCN(C(=O)CCCNC(=O)COc5cccc6c5C(=O)N(C5CCC(=O)NC5=O)C6=O)CC4)cc3)c3nccn23)c1 (stereo not drawn) [Compound 2, 2-((2-(2,6-Dioxopiperidin-3-yl)-1,3-dioxoisoindolin-4-yl)oxy)-N-(4-oxo-4-(4-(4-((5-(m-tolyl)imidazo[1,2-a]pyrazin-8-yl)amino)phenyl)piperazin-1-yl)butyl)acetamide]	10	
Cc1cccc(-c2cnc(Nc3ccc(N4CCN(C(=O)CCOCCNC(=O)COc5ccc6c(c5)C(=O)N(C5CCC(=O)NC5=O)C6=O)CC4)cc3)c3nccn23)c1 (stereo not drawn) [Compound 6, 2-((2-(2,6-Dioxopiperidin-3-yl)-1,3-dioxoisoindolin-5-yl)oxy)-N-(2-(3-oxo-3-(4-(4-((5-(m-tolyl)imidazo[1,2-a]pyrazin-8-yl)amino)phenyl)piperazin-1-yl)propoxy)ethyl)acetamide]	39	
Cc1cccc(-c2cnc(Nc3ccc(N4CCN(C(=O)COc5cccc6c5C(=O)N(C5CCC(=O)NC5=O)C6=O)CC4)cc3)c3nccn23)c1 (stereo not drawn) [Compound 1, 2-(2,6-Dioxopiperidin-3-yl)-4-(2-oxo-2-(4-(4-((5-(m-tolyl)imidazo[1,2-a]pyrazin-8-yl)amino)phenyl)piperazin-1-yl)ethoxy)isoindoline-1,3-dione]	11	
Cc1cccc(-c2cnc(Nc3ccc(N4CCN(C(=O)COc5ccc6c(c5)C(=O)N(C5CCC(=O)NC5=O)C6=O)CC4)cc3)c3nccn23)c1 (stereo not drawn) [Compound 4, 2-(2,6-Dioxopiperidin-3-yl)-5-(2-oxo-2-(4-(4-((5-(m-tolyl)imidazo[1,2-a]pyrazin-8-yl)amino)phenyl)piperazin-1-yl)ethoxy)isoindoline-1,3-dione]	22	
Cc1cccc(-c2cnc(Nc3cccc(C4CCN(CCNC(=O)COc5ccc6c(c5)C(=O)N(C5CCC(=O)NC5=O)C6=O)CC4)c3)c3nccn23)c1 (stereo not drawn) [Compound 9, 2-((2-(2,6-Dioxopiperidin-3-yl)-1,3-dioxoisoindolin-5-yl)oxy)-N-(2-(4-(3-((5-(m-tolyl)imidazo[1,2-a]pyrazin-8-yl)amino)phenyl)piperidin-1-yl)ethyl)acetamide]	18	
Cc1cccc(-c2cnc(Nc3ccc(N4CCN(CCNC(=O)COc5ccc6c(c5)C(=O)N(C5CCC(=O)NC5=O)C6=O)CC4)cc3)c3nccn23)c1 (stereo not drawn) [Compound 7, 2-((2-(2,6-Dioxopiperidin-3-yl)-1,3-dioxoisoindolin-5-yl)oxy)-N-(2-(4-(4-((5-(m-tolyl)imidazo[1,2-a]pyrazin-8-yl)amino)phenyl)piperazin-1-yl)ethyl)acetamide]	51	1100
Cc1cccc(-c2cnc(Nc3ccc(C4CCN(CCNC(=O)COc5ccc6c(c5)C(=O)N(C5CCC(=O)NC5=O)C6=O)CC4)cc3)c3nccn23)c1 (stereo not drawn) [Compound 10, 2-((2-(2,6-Dioxopiperidin-3-yl)-1,3-dioxoisoindolin-5-yl)oxy)-N-(2-(4-(4-((5-(m-tolyl)imidazo[1,2-a]pyrazin-8-yl)amino)phenyl)piperidin-1-yl)ethyl)acetamide]	17	
Cc1cccc(-c2cnc(Nc3cnn(C4CCN(C5CCC6(CC5)CCN(C(=O)c5ccc7c(c5)CN(C5CCC(=O)NC5=O)C7=O)CC6)CC4)c3)c3nccn23)c1 (stereo not drawn) [Compound 12, 3-(1-Oxo-5-(9-(4-(4-((5-(m-tolyl)imidazo[1,2-a]pyrazin-8-yl)amino)-1H-pyrazol-1-yl)piperidin-1-yl)-3-azaspiro[5.5]undecane-3-carbonyl)isoindolin-2-yl)piperidine-2,6-dione]	76	28
Cc1cccc(-c2cnc(Nc3cnn(C4CCN(CCNC(=O)COc5ccc6c(c5)C(=O)N(C5CCC(=O)NC5=O)C6=O)CC4)c3)c3nccn23)c1 (stereo not drawn) [Compound 8, 2-((2-(2,6-Dioxopiperidin-3-yl)-1,3-dioxoisoindolin-5-yl)oxy)-N-(2-(4-(4-((5-(m-tolyl)imidazo[1,2-a]pyrazin-8-yl)amino)-1H-pyrazol-1-yl)piperidin-1-yl)ethyl)acetamide]	78	17
Cc1cccc(-c2cnc(Nc3ccc(N4CCN(C(=O)CCOCCNC(=O)COc5cccc6c5C(=O)N(C5CCC(=O)NC5=O)C6=O)CC4)cc3)c3nccn23)c1 (stereo not drawn) [Compound 3, 2-((2-(2,6-Dioxopiperidin-3-yl)-1,3-dioxoisoindolin-4-yl)oxy)-N-(2-(3-oxo-3-(4-(4-((5-(m-tolyl)imidazo[1,2-a]pyrazin-8-yl)amino)phenyl)piperazin-1-yl)propoxy)ethyl)acetamide]	14	
Cc1cccc(-c2cnc(Nc3ccc(N4CCN(C(=O)CCCNC(=O)COc5ccc6c(c5)C(=O)N(C5CCC(=O)NC5=O)C6=O)CC4)cc3)c3nccn23)c1 (stereo not drawn) [Compound 5, 2-((2-(2,6-Dioxopiperidin-3-yl)-1,3-dioxoisoindolin-5-yl)oxy)-N-(4-oxo-4-(4-(4-((5-(m-tolyl)imidazo[1,2-a]pyrazin-8-yl)amino)phenyl)piperazin-1-yl)butyl)acetamide]	21	
Cc1cccc(-c2cnc(Nc3cccc(N4CCN(CCNC(=O)COc5ccc6c(c5)C(=O)N(C5CCC(=O)NC5=O)C6=O)CC4)c3)c3nccn23)c1 (stereo not drawn) [Compound 11, 2-((2-(2,6-Dioxopiperidin-3-yl)-1,3-dioxoisoindolin-5-yl)oxy)-N-(2-(4-(3-((5-(m-tolyl)imidazo[1,2-a]pyrazin-8-yl)amino)phenyl)piperazin-1-yl)ethyl)acetamide]	22	
